# Laboratory results from ChEMBL document CHEMBL4145540 (Eur J Med Chem, 2018).
# Calls of active or inactive are those of the source. No cut-off for these calls is given here.
# Columns and labels:
# HMEC-1 [1] = test: Antiproliferative activity against HMEC1 cells after 2 days by MTT assay; format: functional, cell-based; conditions: Homo sapiens, HMEC-1, 48 h
# A549 [2] = test: Cell cycle arrest in human A549 cells assessed as accumulation at sub-G0 phase at 80 nM after 20 hrs by propidium iodide staining based flow cytometry (reference value: 6.6 +/- 0.1%); format: functional
# A549 [3] = test: Induction of apoptosis in human A549 cells at 10 nM after 24 hrs by Annexin V-FITC/propidium iodide staining based flow cytometry (reference value: 28%); format: functional
# HL-60 = test: Antiproliferative activity against human HL60 cells after 2 days by MTT assay; format: functional, cell-based; conditions: HL-60, 48 h
# HEK293 = test: Antiproliferative activity against HEK293 cells after 2 days by MTT assay; format: cell-based; conditions: Homo sapiens, HEK293, 48 h
# MCF7 = test: Antiproliferative activity against human MCF7 cells after 2 days by MTT assay; format: functional, cell-based; conditions: MCF7, 48 h
# [4] = Selectivity index, ratio of IC50 for antiproliferative activity against HEK293 cells to IC50 for antiproliferative activity against human HL60 cells; format: toxicity, cell-based; conditions: HEK293 cells versus HL60 cells, read-out: Ratio IC50
# [5] = Selectivity index, ratio of IC50 for antiproliferative activity against HEK293 cells to IC50 for antiproliferative activity against human HT-29 cells; format: toxicity, cell-based; conditions: HEK293 cells versus HT-29 cells, read-out: Ratio IC50
# MDA-MB-231 [6] = test: Antiproliferative activity against human MDA-MB-231 cells after 3 days by coulter counting method; format: functional, cell-based; conditions: MDA-MB-231, 72 h
# A549 [7] = test: Cell cycle arrest in human A549 cells assessed as accumulation at G2/M phase at 80 nM after 20 hrs by propidium iodide staining based flow cytometry (reference value: 11 +/- 1%); format: functional
# A549 [8] = test: Induction of apoptosis in human A549 cells after 24 hrs by Annexin V-FITC/propidium iodide staining based flow cytometry; format: functional, cell-based
# A549 [9] = test: Antiproliferative activity against human A549 cells after 2 days by MTT assay; format: functional, cell-based; conditions: A549, 48 h
# A549 [10] = test: Cell cycle arrest in human A549 cells assessed as accumulation at S phase at 80 nM after 20 hrs by propidium iodide staining based flow cytometry (reference value: 16 +/- 1%); format: functional
# A549 [11] = test: Cell cycle arrest in human A549 cells assessed as accumulation at G0/G1 phase at 80 nM after 20 hrs by propidium iodide staining based flow cytometry (reference value: 66 +/- 1%); format: functional
# HeLa = test: Antiproliferative activity against human HeLa cells after 2 days by MTT assay; format: functional, cell-based; conditions: 48 h
# HT-29 = test: Antiproliferative activity against human HT-29 cells after 2 days by MTT assay; format: functional, cell-based; conditions: HT-29, 48 h
# Bos taurus [12] = species: Bos taurus; test: Inhibition of calf brain tubulin polymerization after 60 mins by turbidimetric method
# A549 [13] = test: Induction of apoptosis in human A549 cells at 100 nM after 24 hrs by Annexin V-FITC/propidium iodide staining based flow cytometry (reference value: 28%); format: functional
# [14] = Selectivity index, ratio of IC50 for antiproliferative activity against HEK293 cells to IC50 for antiproliferative activity against human HeLa cells; format: toxicity, cell-based; conditions: HEK293 cells versus HeLa cells, read-out: Ratio IC50
# [15] = Selectivity index, ratio of IC50 for antiproliferative activity against HEK293 cells to IC50 for antiproliferative activity against human MCF7 cells; format: toxicity, cell-based; conditions: HEK293 cells versus MCF7 cells, read-out: Ratio IC50
# A549 [16] = test: Disruption of microtubule network in human A549 cells assessed as appearance of tubulin aggregates at 260 nM after 16 hrs by Hoechst staining based immunofluorescence assay; format: cell-based
# A549 [17] = test: Cell cycle arrest in human A549 cells assessed as accumulation at S phase at 65 nM after 20 hrs by propidium iodide staining based flow cytometry (reference value: 16 +/- 1%); format: functional
# A549 [18] = test: Cell cycle arrest in human A549 cells assessed as accumulation at G0/G1 phase at 65 nM after 20 hrs by propidium iodide staining based flow cytometry (reference value: 66 +/- 1%); format: functional
# A549 [19] = test: Cell cycle arrest in human A549 cells assessed as accumulation at sub-G0 phase at 65 nM after 20 hrs by propidium iodide staining based flow cytometry (reference value: 6.6 +/- 0.1%); format: functional
# A549 [20] = test: Disruption of microtubule network in human A549 cells assessed as appearance of compressed and fragmented nuclei at 260 nM after 16 hrs by Hoechst staining based immunofluorescence assay; format: cell-based
# A549 [21] = test: Cell cycle arrest in human A549 cells assessed as accumulation at G2/M phase at 65 nM after 20 hrs by propidium iodide staining based flow cytometry (reference value: 11 +/- 1%); format: functional
# MDA-MB-231 [22] = test: Inhibition of EBI binding to beta-tubulin colchicine binding site in human MDA-MB-231 cells at 3 uM preincubated for 16 hrs followed by EBI addition and measured after 1.5 hrs by Western blot analysis; format: cell-based
# A549 [23] = test: Cell cycle arrest in human A549 cells assessed as accumulation at G0/G1 phase at 75 nM after 20 hrs by propidium iodide staining based flow cytometry (reference value: 66 +/- 1%); format: functional
# A549 [24] = test: Cell cycle arrest in human A549 cells assessed as accumulation at G2/M phase at 75 nM after 20 hrs by propidium iodide staining based flow cytometry (reference value: 11 +/- 1%); format: functional
# HMEC-1 [25] = test: Vascular disruptive activity in HMEC1 cells assessed as disruption of preformed tubular networks after 4 hrs by matrigel based assay; format: functional, cell-based; conditions: Homo sapiens
# A549 [26] = test: Cell cycle arrest in human A549 cells assessed as accumulation at sub-G0 phase at 75 nM after 20 hrs by propidium iodide staining based flow cytometry (reference value: 6.6 +/- 0.1%); format: functional
# A549 [27] = test: Cell cycle arrest in human A549 cells assessed as accumulation at S phase at 75 nM after 20 hrs by propidium iodide staining based flow cytometry (reference value: 16 +/- 1%); format: functional
# Bos taurus [28] = species: Bos taurus; test: Inhibition of calf brain tubulin polymerization in glycerol-assembly buffer assessed as critical concentration for tubulin assembly at 27.5 uM measured every 30 secs for 2 hrs in presence of GTP
# A549 [29] = test: Cell cycle arrest in human A549 cells assessed as accumulation at G2/M phase at 50 nM after 20 hrs by propidium iodide staining based flow cytometry (reference value: 11 +/- 1%); format: functional
# A549 [30] = test: Cell cycle arrest in human A549 cells assessed as accumulation at S phase at 50 nM after 20 hrs by propidium iodide staining based flow cytometry (reference value: 16 +/- 1%); format: functional
# A549 [31] = test: Cell cycle arrest in human A549 cells assessed as accumulation at G0/G1 phase at 50 nM after 20 hrs by propidium iodide staining based flow cytometry (reference value: 66 +/- 1%); format: functional
# A549 [32] = test: Cell cycle arrest in human A549 cells assessed as accumulation at sub-G0 phase at 50 nM after 20 hrs by propidium iodide staining based flow cytometry (reference value: 6.6 +/- 0.1%); format: functional
SMILES,IC50 (HMEC-1 [1]) [nM],Activity (A549 [3]) [%],IC50 (HL-60) [nM],IC50 (HEK293) [nM],IC50 (MCF7) [nM],selectivity ratio [4],selectivity ratio [5],IC50 (MDA-MB-231 [6]) [nM],Activity (A549 [8]),IC50 (A549 [9]) [nM],IC50 (HeLa) [nM],IC50 (HT-29) [nM],inhibition (Bos taurus [12]),Activity (A549 [13]) [%],selectivity ratio [14],selectivity ratio [15],Activity (A549 [16]),Activity (A549 [17]) [%],Activity (A549 [18]) [%],Activity (A549 [19]) [%],further results
COc1ccc(/C=C\c2cc(OC)c(OC)c(OC)c2)cc1NC(=O)Oc1cccc(Br)c1,12,51,5.6,16,5.9,2 to 11,2 to 11,13.4,Dose-dependent effect,160,2.6,11.3,Active,90,2 to 11,2 to 11,,,,,Activity (A549 [2]): 17%; Activity (A549 [7]): 39%; Activity (A549 [10]): 12%; Activity (A549 [11]): 30%
COc1ccc(/C=C\c2cc(OC)c(OC)c(OC)c2)cc1NC(=O)Oc1ccccc1Cl,50,,3.7,41,10.1,2 to 11,2 to 11,13.8,,130,5,17.8,,,2 to 11,2 to 11,Active,12,29,16,Activity (A549 [20]): Active; Activity (A549 [21]): 43%
COc1ccc(/C=C\c2cc(OC)c(OC)c(OC)c2)cc1NC(=O)Oc1ccc(Br)cc1,7,36,5,19,0.75,2 to 11,2 to 11,4.07,Dose-dependent effect,150,1.2,3.5,,95,2 to 11,2 to 11,,,,,inhibition (MDA-MB-231 [22]): Active; Activity (A549 [23]): 32%; Activity (A549 [24]): 33%; Activity (HMEC-1 [25]): Dose-dependent effect; Activity (A549 [26]): 19%; Activity (A549 [27]): 17%
COc1ccc(/C=C\c2cc(OC)c(OC)c(OC)c2)cc1O [COMBRETASTATIN A4],3400,,4000,,,,,,,130,2100,,Active,,,,,,,,Activity (Bos taurus [28]): 22 µM; Activity (A549 [29]): 43%; Activity (A549 [30]): 22%; Activity (A549 [31]): 21%; Activity (A549 [32]): 15%
COc1cc2c(c(OC)c1OC)-c1ccc(OC)c(=O)cc1[C@@H](NC(C)=O)CC2,,,,,,,,,,,,,,,,,,,,,inhibition (MDA-MB-231 [22]): Active
COc1ccc(/C=C\c2cc(OC)c(OC)c(OC)c2)cc1NC(=O)Oc1cccc(C(F)(F)F)c1,16,,4,42.2,56,,,14.2,,130,40,13,,,,,Active,15,28,16,Activity (A549 [20]): Active; Activity (A549 [21]): 41%
